Article PMC6994103 (PLoS Neglected Tropical Diseases, 2020)
Several values for one entry are separate records, joined by “and”; a condition that tells them apart may be missing. Equal entries are not always repeated.

Key:
[1] = test system: T. cruzi trypomastigotes Y strain; experiment: Synergism BZL with LTD-CPH-CFZ in trypomastigotes, Y strain (CompuSyn); type: cell-based, Trypanosoma cruzi
Method: (§1) Parasites´ growth was evaluated at different concentrations of BZL, CV and CV structural analogues, and parasite proliferation was determined after 48 h. […] Growth was determined by counting in a Neubauer chamber and viability assays by using “Cell Titer 96 Aqueous One Solution Cell Proliferation Assay (MTS)” (Promega, Madison, WI, USA) according to the manufacturer’s instructions. Amastigotes were fixed with methanol, stained and mounted with Vectashield with DAPI (Vector Laboratories, Burlingame, CA, USA), and then the non-lysed cells were counted by using fluorescence microscopy. Calculations were performed using CompuSyn software (http://combosyn.com) which is based on the median-effect equation [48] and its extension, the combination index.

[2] = test system: T. cruzi epimastigotes Y strain; experiment: Synergism BZL with LTD-CPH-CFZ in epimastigotes, Y strain (CompuSyn); type: cell-based, Trypanosoma cruzi
Method: as §1

O=C(Cn1ccnc1[N+](=O)[O-])NCc1ccccc1 [Benznidazole]
DRI BZL ([1]; BZL 0.50 µM + LTD-CPH-CFZ 3.00 µM (1/10 IC50)): 3.60 ± 0.06 | DRI BZL ([1]; BZL 0.50 µM + LTD-CPH-CFZ 6.00 µM (1/5 IC50)): 9.19 ± 1.16 | DRI BZL ([1]; BZL 0.50 µM + LTD-CPH-CFZ 7.50 µM (1/4 IC50)): 22.88 ± 3.02 | DRI BZL ([1]; BZL 0.50 µM + LTD-CPH-CFZ 10.00 µM (1/3 IC50)): 94.41 ± 15.96 | DRI BZL ([1]; BZL 1.00 µM + LTD-CPH-CFZ 3.00 µM (1/10 IC50)): 5.34 ± 0.30 | DRI BZL ([1]; BZL 1.00 µM + LTD-CPH-CFZ 6.00 µM (1/5 IC50)): 12.08 ± 1.16 | DRI BZL ([1]; BZL 1.00 µM + LTD-CPH-CFZ 7.50 µM (1/4 IC50), listed as BZL): 27 and 27.38 ± 2.15 | DRI BZL ([1]; BZL 1.00 µM + LTD-CPH-CFZ 10.00 µM (1/3 IC50)): 95.04 ± 0.83 | DRI BZL ([1]; BZL 5.00 µM + LTD-CPH-CFZ 3.00 µM (1/10 IC50)): 2.88 ± 0.54 | DRI BZL ([1]; BZL 5.00 µM + LTD-CPH-CFZ 6.00 µM (1/5 IC50)): 7.17 ± 1.62 | DRI BZL ([1]; BZL 5.00 µM + LTD-CPH-CFZ 7.50 µM (1/4 IC50)): 14.85 ± 6.05 | DRI BZL ([1]; BZL 5.00 µM + LTD-CPH-CFZ 10.00 µM (1/3 IC50)): 32.44 ± 3.71 | DRI BZL ([1]; BZL 10.00 µM + LTD-CPH-CFZ 3.00 µM (1/10 IC50)): 1.46 ± 0.23 | DRI BZL ([1]; BZL 10.00 µM + LTD-CPH-CFZ 6.00 µM (1/5 IC50)): 6.02 ± 1.15 | DRI BZL ([1]; BZL 10.00 µM + LTD-CPH-CFZ 7.50 µM (1/4 IC50)): 33.28 ± 1.72 | DRI BZL ([1]; BZL 10.00 µM + LTD-CPH-CFZ 10.00 µM (1/3 IC50)): 35.17 ± 4.38 | Dose BZL alone ([1]; same effect (Fa 0.226) as BZL 0.50 µM + LTD-CPH-CFZ 3.00 µM): 1.80 ± 0.03 µM | Dose BZL alone ([1]; same effect (Fa 0.417) as BZL 0.50 µM + LTD-CPH-CFZ 6.00 µM): 4.60 ± 0.58 µM | Dose BZL alone ([1]; same effect (Fa 0.452) as BZL 1.00 µM + LTD-CPH-CFZ 3.00 µM): 5.34 ± 0.30 µM | Dose BZL alone ([1]; same effect (Fa 0.631) as BZL 0.50 µM + LTD-CPH-CFZ 7.50 µM): 11.44 ± 1.51 µM | Dose BZL alone ([1]; same effect (Fa 0.643) as BZL 1.00 µM + LTD-CPH-CFZ 6.00 µM): 12.08 ± 1.16 µM | Dose BZL alone ([1]; same effect (Fa 0.679) as BZL 5.00 µM + LTD-CPH-CFZ 3.00 µM): 14.42 ± 2.70 µM | Dose BZL alone ([1]; same effect (Fa 0.702) as BZL 10.00 µM + LTD-CPH-CFZ 3.00 µM): 14.56 ± 2.33 µM | Dose BZL alone ([1]; same effect (Fa 0.798) as BZL 1.00 µM + LTD-CPH-CFZ 7.50 µM): 27.38 ± 2.15 µM | Dose BZL alone ([1]; same effect (Fa 0.833) as BZL 5.00 µM + LTD-CPH-CFZ 6.00 µM): 35.83 ± 8.10 µM | Dose BZL alone ([1]; same effect (Fa 0.869) as BZL 0.50 µM + LTD-CPH-CFZ 10.00 µM): 47.21 ± 7.98 µM | Dose BZL alone ([1]; same effect (Fa 0.893) as BZL 10.00 µM + LTD-CPH-CFZ 6.00 µM): 60.21 ± 11.50 µM | Dose BZL alone ([1]; same effect (Fa 0.905) as BZL 5.00 µM + LTD-CPH-CFZ 7.50 µM): 74.24 ± 30.25 µM | Dose BZL alone ([1]; same effect (Fa 0.929) as BZL 1.00 µM + LTD-CPH-CFZ 10.00 µM): 95.04 ± 0.83 µM | Dose BZL alone ([1]; same effect (Fa 0.976) as BZL 5.00 µM + LTD-CPH-CFZ 10.00 µM): 162.18 ± 18.57 µM | Dose BZL alone ([1]; same effect (Fa 0.988) as BZL 10.00 µM + LTD-CPH-CFZ 7.50 µM): 332.83 ± 17.17 µM | Dose BZL alone ([1]; same effect (Fa 0.988) as BZL 10.00 µM + LTD-CPH-CFZ 10.00 µM): 351.76 ± 43.93 µM | DRI BZL ([2]; BZL 0.10 µM + LTD-CPH-CFZ 3.40 µM (1/25 IC50)): 16.63 ± 2.78 | DRI BZL ([2]; BZL 0.10 µM + LTD-CPH-CFZ 8.50 µM (1/10 IC50)): 73.67 ± 4.95 | DRI BZL ([2]; BZL 0.10 µM + LTD-CPH-CFZ 17.00 µM (1/5 IC50)): 374.17 ± 32.50 | DRI BZL ([2]; BZL 0.10 µM + LTD-CPH-CFZ 42.50 µM (1/2 IC50)): 923.66 ± 175.14 | DRI BZL ([2]; BZL 1.00 µM + LTD-CPH-CFZ 3.40 µM (1/25 IC50)): 5.12 ± 0.06 | DRI BZL ([2]; BZL 1.00 µM + LTD-CPH-CFZ 8.50 µM (1/10 IC50)): 13.27 ± 2.61 | DRI BZL ([2]; BZL 1.00 µM + LTD-CPH-CFZ 17.00 µM (1/5 IC50), listed as BZL): 54 and 53.83 ± 6.79 | DRI BZL ([2]; BZL 1.00 µM + LTD-CPH-CFZ 42.50 µM (1/2 IC50)): 157.01 ± 24.63
